# Results as given in US11254716B2, “Peptides for binding epidermal growth factor” (3M INNOVATIVE PROPERTIES COMPANY, priority 2016, dated 2022).
# Where no end group is shown, it is not given here.
# What was measured:
# [1] = target: T1, EGF (Homo sapiens, UniProt P01133); assay: biochemical; conditions: binding affinity (KD) for EGF, CK-linker modified peptide immobilized on CM5 chip, Biacore 3000, 25° C., EGF 62.5-1000 nM, 1-to-1 Langmuir fit
# Procedure: “Test Method A” refers to the following general surface plasmon resonance (SPR) binding assay. Target protein (e.g., EGF and tumor necrosis factor alpha (TNFα)) is immobilized at 25° C. and diluted peptides are injected for 3 min at a flow rate of 10 μl/min at 25° C.
# The immobilization was performed at 25° C. using HBS-EP as the running buffer. The CM-dextran surfaces of the sensor chip flow cells were activated by a seven minute injection (20 microliters/minute) of freshly prepared 1:1 50 mM NHS: 200 mM EDC. […] The coupling step was followed by a seven minute injection (20 microliters/minute) of ethanolamine hydrochloride-NaOH (1M, pH 8.5) which deactivated residual reactive sites.
# The kinetic analysis for EGF was performed at 25° C. The EGF was diluted in HBS-EP buffer and centrifuged at 14,000 rpm for five minutes at 4° C. Individual test samples of EGF at various concentrations (62.5, 125, 250, 500 and 1000 nM) were injected for three minutes at a flow rate of 10 microliters/minute. The surface was regenerated by injection of 10 microliters of glycine-HCl in water (20 mM, pH 2.5).
# The data analysis was carried out using the BIA Evaluation Software Kit obtained from GE Healthcare Bio-Sciences Corporation. The assay data fitted 1-to-1 Langmuir using global curve fitting analysis.
# [2] = target: T2, TNF-α (Homo sapiens, UniProt P01375); assay: Surface plasmon resonance (SPR) binding assay (Test Method A), TNF-α; conditions: CK-linker modified peptide immobilized on CM5 chip, Biacore 3000, 25° C., TNF-α 62.5-1000 nM, 1-to-1 Langmuir fit; read-out: binding affinity (KD) for TNF-α
# T2 construct: purchased Abcam plc, Cambridge, Mass
# [3] = target: T1, EGF; assay: Dot blotting analysis of biotinylated peptide with membrane-spotted EGF; format: binding; parameters: Recombinant Human Epidermal Growth Factor (EGF); purchased Abcam plc, Cambridge, Mass; conditions: EGF 10 nM spotted; biotinylated peptide 10 ng/mL; Streptavidin-HRP, TMB
# Procedure: EGF (1 microliter of a 10 nM solution in PBS was spotted a nitrocellulose membrane (obtained from Thermo Fisher Scientific) and the membrane was dried in air for about 30 minutes. The membrane was then incubated in 15 mL of blocking buffer (3 wt. % BSA in PBS) for one hour at room temperature. The membrane was washed three times (15 minutes for each wash) with 15 mL portions of fresh PBST. The washed membrane was incubated with Biotinylated SEQ ID NO: 1 [10 mL of a 10 ng/mL solution in blocking buffer (3 wt. % BSA in PBS)] with gentle agitation for one hour. The membrane was again washed three times (15 minutes for each wash) with 15 mL portions of fresh PBST. The washed membrane was incubated with Streptavidin-HRP [1:5000 dilution in 10 mL of the blocking buffer (3 wt. % BSA in PBS)] for 30 minutes with gentle agitation. Following the incubation, the membrane was washed three times (15 minutes for each wash) with 15 mL portions of fresh PBST. The washed membrane was incubated with 10 mL of the development solution for horseradish peroxidase (TMB-Blotting Substrate Solution, Pierce-Fisher Scientific) with gentle agitation. The color development was stopped by adding water.
# T1 sequence (P01133 971-1023 limits assumed): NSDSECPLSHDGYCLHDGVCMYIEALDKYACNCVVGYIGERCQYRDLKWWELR
# T2 sequence (P01375 77-233 limits assumed): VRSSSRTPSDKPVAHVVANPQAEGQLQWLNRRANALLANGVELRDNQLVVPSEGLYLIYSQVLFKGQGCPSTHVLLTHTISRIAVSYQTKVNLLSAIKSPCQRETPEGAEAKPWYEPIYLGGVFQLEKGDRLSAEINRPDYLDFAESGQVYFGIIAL
substance,measurement,setting,value
"Ac-WFEWPYWEMNVPDVWN-NH2 [SEQ ID NO: 1, WFEWPYWEMNVPDVWN]",Kd,[1],0.08 µM
same,Kd,[2],75 µM
"Biotinylated SEQ ID NO: 1: Biotinylated version of peptide SEQ ID NO: 1 (WFEWPYWEMNVPDVWN; also: biotinylated, site not given here)",dot blot colour development at EGF application site (affinity for EGF),[3],A dark spot developed
